The text below walks through data of ChEMBL document CHEMBL1158893, “New icetexane and 20 norabietane diterpenes with trypanocidal activity from Dracocephalum komarovi” (2003).

For this assay, the system named is Trypanosoma cruzi. The assay can be described thus: Trypanocidal activity against Trypanosoma cruzi epimastigotes. Format: functional.

Values after ≈ are worked out from the molar mass of the structure shown.

Take `COc1c(O)c2c(c(O)c1C(C)C)C(=O)C[C@H]1[C@]3(C)CCC[C@]21OC3` [DRACOCEPHALONE A]: the MLC was 200 µM (≈ 69.3 µg/mL).

Consider `COC1=C(C(C)C)C(=O)C2=C(C[C@@]34CCCC(C)(C)[C@@H]3C[C@]2(O)O4)C1=O` [KOMAROVIQUINONE], for which the MLC came out at 0.4 µM (≈ 0.144 µg/mL).

`CC(C)c1c(O)c2c(c3c1OCO3)C[C@@]1(O)CCCC(C)(C)[C@@H]1CC2=O` [CYCLOCOULTERONE] displayed an MLC of 20 µM (≈ 7.21 µg/mL).

Take `CN(C)c1ccc(C(=C2C=CC(=[N+](C)C)C=C2)c2ccc(N(C)C)cc2)cc1.[Cl-]` [GENTIAN VIOLET]: the MLC worked out at 6.3 µM.
